Source: patent US20150051262A1, “NMDA RECEPTOR MODULATORS AND USES THEREOF” (Northwestern University, priority 2011, published 2015)
Residues, ends and D or L forms follow the SMILES beside them.

Assays:
[1] = Metabolic stability in liver microsomes, rat; assay type: in vitro ADME; details: Rat (M) microsomes
Experimental: (§1) Metabolic stability was assessed in liver microsomes as well as in hepatocytes with few compounds.
(§2) Procedure for microsomal stability: • Species: Rat and human • Test concentration: 1 μM (n=2) • Protein concentration: 0.125 mg/mL • Time points: 0, 5, 15, 30 and 60 minutes • Controls: Minus NADPH and buffer • Analysis: Parent compound monitoring LC-MS/MS (Peak area ratios)

[2] = Metabolic stability in liver microsomes, human; assay type: in vitro ADME; details: Human (M) microsomes
Experimental: as §1, §2

in vitro = details: dog, MDCK; for Papp: concentration 5 μM
Experimental: (§3) Procedure. Permeability of test compounds was assessed using MDCK (Madin-Darby Canine Kidney Cells) using the below parameters. • Test concentration: 5 μM (n=3) • Buffer: HBSS pH 7.4 • Time points: 0, 15, 30, 60 and 90 min • Analysis: Parent compound monitoring using LC-MS/MS

[3] = Bioavailability of CM-4A (plasma concentration after IV/PO dosing); assay type: in vivo, Sprague Dawley rats; details: 0.1 to 10 mg/kg PO, rat plasma, FIG. 1
Experimental: Procedure. […] Data for male and female were combined for 1 mg/kg PO dosing given that no gender difference was seen. Plasma was separated by centrifugation (1,000×G for 10 min at 4° C.) and plasma samples stored at −80° C. until assay. […]. On the day of the assay, samples and spiked plasma standards were thawed at 4° C., extracted in 3 volumes of ice cold acetonitrile, centrifuged at 25,000×G for 10 min at 4° C., and the supernatant was loaded into autosampler vials (4° C.).

[4] = test system: long-term depression (LTD); assay: Long-term depression (LTD) in hippocampal slices; assay type: cell-based; details: 1 μM, FIG. 7
Experimental: (Note 0.001 μM represents no drug addition; Each point is mean±SEM of 8-10 slices).

floating behavior [5] = assay: Porsolt test procedure 1; assay type: in vivo, Sprague-Dawley rats
Experimental: Animals were placed in a 46 cm tall×20 cm in diameter clear glass tube filled to 30 cm with tap water at room temperature (23° C.±0.5° C.) for 5 min on the test day. All animals were towel dried after each swimming session by the experimenter. Water was changed after every other animal. Animals were videotaped and total duration (sec) of floating behavior (as defined as the minimal movement required in order to maintain the animal's head above the water) was quantified by a blind experimenter.

latency to eat = assay: Rat novelty-induced hypophagia (NIH) test; assay type: in vivo, SD rats; details: 1 mg/kg PO, 1 hr before test, FIG. 13
Experimental: The rat NIH test was conducted as follows. Animals were food deprived overnight before testing, and lab chow was placed into the center chamber of the open field. After NIH testing, the latency to eat in the animals' home cage was determined as a control. […] N=12 per group. *P<0.05.

ultrasonic vocalizations = assay: Rat ultrasonic vocalizations (USVs) test; assay type: in vivo, SD rats; details: 1 mg/kg PO, 1 hr before testing
Experimental: FIGS. 14A and 14B show the results of the rat USVs test. Positive emotional learning was measured during the conditioned stimulus (CS) trials preceding the tickle unconditioned stimulus (UCS) trials (FIG. 14A). Animals received 15 second trials consisting of 6 CS and 6 UCS trials each (3 min total). Running speed for animals to self administer tickling at the end of the 3 min session was also measured. […] N=7-8. *P<0.05.

open field behavior = assay: Rat open field test; assay type: in vivo, SD rats; details: 1 mg/kg PO, 1 hr before test, FIG. 15
fall latencies = assay: Rat accelerating rota-rod test; assay type: in vivo, SD rats; details: 10-100 mg/kg PO, 30 and 60 min post-dosing, FIG. 16
Experimental: Animals were tested immediately before dosing (0 min), 30 min post-dosing, and 60 min post-dosing using a within subjects design.

floating behavior [6] = assay: Porsolt test procedure 2; assay type: in vivo, Sprague Dawley rats
[7] = Kinetic aqueous solubility (pION method); assay type: physicochemical; details: pH 7.4, conc. tested 200 μM with 1% DMSO, 16 h incubation
[8] = Metabolic stability in hepatocytes, rat; assay type: in vitro ADME; details: Rat (H) hepatocytes, 10 μM
Experimental: as §1
(§4) Procedure for hepatocyte stability: • Stock preparation: DMSO • Buffer: Krebs Henseleit Buffer • Total Incubation volume: […] • Cell density: 1 million cells/mL • Test concentration: 10 μM with 0.5% DMSO (n=2) • Time points: 0 and 60 min • Analysis: LC-MS/MS

[9] = Metabolic stability in hepatocytes, human; assay type: in vitro ADME; details: Human (H) hepatocytes, 10 μM
Experimental: as §1, §4

[10] = test system: MDCK (Madin-Darby Canine Kidney Cells); assay: in vitro; details: concentration 5 μM
Experimental: as §3

[11] = test system: Schaffer collateral-evoked NMDA EPSCs in CA1 pyramidal neurons; assay: Long-term potentiation (LTP) assay procedure 2; assay type: cell-based, Sprague-Dawley rats; details: 1 μM, FIG. 8, P<0.05
Experimental: Assays were conducted as described in Zhang et al. (2008). Sprague-Dawley rats (12-18 days old; Taconic Farms) were deeply anesthetized with isoflurane and decapitated. Brains was removed rapidly, submerged in ice-cold artificial cerebrospinal fluid (ACSF, 2-4° C.), which contained (in mM): 124 NaCl, 4 KCl, 2 MgSO4, 2 CaC12, 1.25 NaH2PO4, 26 NaHCO3, 10 glucose; at pH 7.4, gassed continuously with 95% O2/5% CO2). Brains were hemisected, the frontal lobes cut off, and individual hemispheres glued using cyanoacrylate adhesive onto a stage immersed in ice-cold ACSF gassed continuously with 95% O2/5% CO2 during slicing. […] Bath application of test compounds (1 μM) was applied 30 min prior to application of Schaffer collateral stimulus trains to elicit LTP. LTP was induced by stimulation of Schaffer collateral axons with four high frequency theta burst stimulus trains of 10×100 Hz/5 pulse bursts each, applied at an inter-burst interval of 200 ms. Each train was 2 s in duration, and trains were applied 15 s apart.

floating behavior [12] = assay: Porsolt test procedure 2; assay type: in vivo, Sprague Dawley rats; details: 1 hr post-dosing
Experimental: The antidepressant-like effects of test compounds were examined with the rat Porsolt test as described in Page et al. (1999) and Burgdorf et al. (2009). Male Sprague Dawley rats (2-3 month old) were used in this study. Animals were dosed with test compounds (0.3 mg/kg IV) or sterile saline vehicle (1 ml/kg IV tail vein) 1 hr before a single test session. […] Water was changed after every other animal. […] CM-6A, CM-7A, CM-8A, and CM-9A were tested in the Porsolt test. CM-5A was not tested in the Porsolt test.
Animals received a single 15 min Porsolt habituation session on the day before the first 5 min Porsolt test. N=6 per group. *P<0.05 Fisher's PLSD post hoc test vs. vehicle.

## C[C@@H](O)[C@H](N)C(=O)N1CCC[C@H]1C(=O)N1CCC[C@@]1(Cc1ccccc1)C(=O)N[C@H](C(N)=O)[C@@H](C)O [CM-4A, (R)-N-((2S,3R)-1-amino-3-hydroxy-1-oxobutan-2-yl)-1-((S)-1-((2S,3R)-2-amino-3-hydroxybutanoyl)pyrrolidine-2-carbonyl)-2-benzylpyrrolidine-2-carboxamide]
[1]; 1 μM
  % Remaining at 60 minutes: 68%
  Stability Class: Unstable (% Remaining <70%)
[1]; liver microsomes
  half-life at 1 μM: > 1 h
[2]; 1 μM
  % Remaining at 60 minutes: 72%
  Stability Class: Moderate (% Remaining 70-90%)
[2]; liver microsomes
  half-life at 1 μM: > 1 h
In vitro; pH 7.4
  recovery at 5 μM: 100%
In vitro; pH 7.4, Papp (10^−6 cm/sec), HBSS pH 7.4
  Papp: 0.15 ×10⁻⁶ cm/s
In vitro; pH 7.4, Permeability classification
  Papp: < 3 ×10⁻⁶ cm/s
[3]
  oral bioavailability (dose linearity): essentially linear
[4]
  magnitude of LTD: significantly reduced the magnitude of LTD
Floating behavior [5]; 0.1 to 10 mg/kg PO, FIG. 9
  floating time in the rat Porsolt test (dose response): dose- and time-dependent antidepressant effect
Latency to eat
  latency to eat in the NIH test: produces an antidepressant/anxiolytic-like effect
Ultrasonic vocalizations; FIG. 14A
  positive emotional learning: increases positive emotional learning
Ultrasonic vocalizations; FIG. 14B
  aversive 20-kHz USVs: decreases aversive 20-kHz USVs
Open field behavior
  center compartment crosses and time (anxiolytic-like effect): produces an anxiolytic-like effect
  locomotor behavior (line crosses): without effecting locomotor behavior
Fall latencies
  fall latencies (sedative/ataxia like effect): does not produce a sedative/ataxia like effect
Floating behavior [6]; positive control, 1 mg/kg PO, 1 hr and 24 hrs post dosing, FIG. 12
  floating time in the rat Porsolt test: robust Antidepressant-like effects

## C[C@@H](O)[C@H](N)C(=O)N1CCC[C@H]1C(=O)N1CCC[C@@]1(Cc1ccc(F)cc1)C(=O)N[C@H](C(N)=O)[C@@H](C)O [CM-6A, (R)-N-((2S,3R)-1-amino-3-hydroxy-1-oxobutan-2-yl)-1-((S)-1-((2S,3R)-2-amino-3-hydroxybutanoyl)pyrrolidine-2-carbonyl)-2-(4-fluorobenzyl) pyrrolidine-2-carboxamide]
[7]
  Mean Solubility (N = 3) at pH: >200
[1]; 1 μM
  % Remaining at 60 minutes: 100%
  Half-life: >1 h
  Stability Class: Stable (% Remaining >90%)
[2]; 1 μM
  % Remaining at 60 minutes: 88%
  Half-life: >1 h
  Stability Class: Moderate (% Remaining 70-90%)
[8]
  % Remaining at 60 minutes: 87%
  Half-life: >1 h
  Stability Class: Moderate (% Remaining 70-90%)
[9]
  % Remaining at 60 minutes: 98%
  Half-life: >1 h
  Stability Class: Stable (% Remaining >90%)
[10]
  Permeability classification: Low (≦3 × 10^−6 cm/sec)
  Recovery: 100
[11]
  long-term potentiation after high frequency stimulation (fEPSP slope): increased long-term potentiation
Floating behavior [12]; single dose 0.3 mg/kg IV, FIG. 11A
  floating time in the Porsolt test: produced an antidepressant-like effect
Floating behavior [12]; single dose (0.3 mg/kg IV), FIG. 11B
  floating time in the Porsolt test: produced an antidepressant-like effect
Floating behavior [6]; single dose (0.3 mg/kg IV), 24 hrs post-dosing, FIG. 11C
  floating time in the Porsolt test: produced an antidepressant-like effect

## C[C@@H](O)[C@H](N)C(=O)N1CCC[C@H]1C(=O)N1CCC[C@H]1C(=O)N[C@H](C(N)=O)[C@@H](C)O [GLYX-13, reference compound] (H-TPPT-NH2)
[4]
  magnitude of LTD: significantly reduced the magnitude of LTD

## NS(=O)(=O)c1cccc2c1c([N+](=O)[O-])cc1[nH]c(=O)c(=O)[nH]c12 [NBQX, 2,3-dihydroxy-6-nitro-7-sulfamoyl-benzo[f]quinoxaline-2,3-dione, reference compound]
Floating behavior [5]; NBQX 10 mg/kg IP 10 min before CM-4A 1 mg/kg PO, FIG. 10
  floating time in the rat Porsolt test, NBQX pretreatment: blocks the antidepressant-like effect of CM-4A
